Data on 84 compounds can be found in PubChem BioAssay AID1645868 (Buhrlage Lab, Dana-Farber Cancer Institute and Novartis …, 2021).

The target in the assay is OTU domain-containing protein 3 (Homo sapiens) (UniProt Q5T2D3). The assay can be described thus: Validation of screening hits, potency titration, in vitro enzymatic, OTU domain-containing protein 3 DUB inhibitors (AID 1645868). The conditions noted are these: purified OTUD3, ubiquitin-rhodamine cleavage fluorescence, 2 h.

Active and inactive are the calls of the source.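 The calls were made as follows: active = maximal percent inhibition of the deubiquitinase OTUD3 of at least 30% across the tested doses; inactive = the rest.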

Sequence of OTU domain-containing protein 3 (Homo sapiens) (Q5T2D3 whole entry, looked up, the tested form may be a part): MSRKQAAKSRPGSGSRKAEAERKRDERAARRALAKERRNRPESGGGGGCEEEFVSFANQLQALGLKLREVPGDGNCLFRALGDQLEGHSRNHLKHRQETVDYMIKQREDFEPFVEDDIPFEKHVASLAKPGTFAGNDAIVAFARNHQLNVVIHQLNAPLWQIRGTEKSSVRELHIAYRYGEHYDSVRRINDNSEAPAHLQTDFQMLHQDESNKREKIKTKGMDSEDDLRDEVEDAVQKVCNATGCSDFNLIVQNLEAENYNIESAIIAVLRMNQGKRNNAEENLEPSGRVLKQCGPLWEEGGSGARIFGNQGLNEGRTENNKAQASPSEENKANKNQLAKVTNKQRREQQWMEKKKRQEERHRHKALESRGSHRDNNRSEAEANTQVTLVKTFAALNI

With `Cc1cc(C(F)(F)F)n2nc(C3CCN(C(=O)c4cnn(C)c4C)C3)cc2n1` (centres undefined), the IC50 (as a rule, the point on the concentration scale where inhibition reaches its midpoint) was > 50 µM (inactive).

For the compound `Cc1ccc(C)c(-c2cc3c(=O)n(Cc4noc(CN5CCCCC5)n4)ccn3n2)c1`, the IC50 was > 50 µM (inactive).

With `CCCOc1ccc(C(=O)Nc2ccc(S(=O)(=O)Nc3cc(C)nc(C)n3)cc2)cc1`, the IC50 is > 50 µM (inactive).

As for `CCC(C)(C)C1CCC2(CC1)N=C(N)Nc1nc3ccccc3n12` (centres undefined), the IC50 was > 50 µM (inactive).

In the case of `Cc1sc(NC(=O)CNc2ccccc2)nc1-c1ccc2c(c1)CCN2C(=O)C(C)C`, the IC50 is > 50 µM (inactive).

As for `CC(C)Cc1nc2sc3c(NCCN4CCOCC4)ncnc3c2c2c1CCC2`, the IC50 is > 50 µM (inactive).

As for `Cc1ccc(-n2nnc(C(=O)NC3CCCCC3)c2N)cc1`, the IC50 was > 50 µM (inactive).

For the compound `COc1cc(Cl)ccc1C(=O)Nc1cccc(-n2cnnn2)c1C`, the IC50 was 16.3 µM.

With `CC(OC(=O)c1cn(-c2ccccc2)nc1-c1cccnc1)C(=O)Nc1cccc(S(=O)(=O)N(C)C)c1` (centres undefined), the IC50 was > 50 µM (inactive).

With `Cc1sc(NC(=O)/C=C/c2ccco2)nc1-c1ccccc1`, the IC50 was > 50 µM (inactive).

For `C=C1Nc2ccccc2C(=O)N1c1cccc(NC(=O)c2ccc(C)c(C)c2)c1`, the IC50 is > 50 µM (inactive).

`O=C(c1ccnn1-c1ccc2ccc(-c3ccncc3)cn12)N1CCCC1`: the IC50 is > 50 µM (inactive).

Take `COC(=O)c1cc(C#N)c(NCc2ccccc2)nc1C`: the IC50 was > 50 µM (inactive).

As for `Fc1ccc(Oc2nc(CN3CCOCC3)nc3sc4c(c23)CCCC4)c(Cl)c1`, the IC50 is > 50 µM (inactive).

On to `COc1ccc(S(=O)(=O)N2CCc3ccccc32)cc1C(=O)Nc1ccc2[nH]c(=O)[nH]c2c1`, for which the IC50 was 19.5 µM.

For `COc1cc(NC(=O)c2cc(CN3CCOCC3)on2)cc(OC)c1`, the IC50 is > 50 µM (inactive).

As to `Cn1cc(CCNC(=O)c2cc3ccccc3[nH]2)c2cccnc21`, the IC50 was > 50 µM (inactive).

On to `COc1ccccc1CNC(=O)CCCn1c(=O)c2ccccc2n(CC(=O)N2CCN(c3ccccc3)CC2)c1=O`, for which the concentration for half-maximal inhibition (IC50) was 25.5 µM.

For `CCOc1ccc2[nH]c(=O)c(CN(C(=O)c3cccs3)C3CCCC3)cc2c1`, the IC50 is 29.2 µM.

For `Cc1cc(Cl)ccc1Nc1nc(Nc2cccc(F)c2)nc2nccnc12`, the IC50 was > 50 µM (inactive).

As to `Cc1cnnn1-c1ccc(C(=O)Nc2ccc(Cl)cc2)cc1`, the IC50 is > 50 µM (inactive).

As to `Cc1nc(-c2ccc(NC(=O)N3CCN(c4ccccn4)CC3)cc2)no1`, the IC50 was > 50 µM (inactive).

Consider `Cc1c(-c2nnc(-c3ccccn3)o2)nnn1-c1cccc(Cl)c1`, for which the IC50 is 48.5 µM.

Regarding `Cc1ccc2c(c1C)NC(=O)[C@]21[C@@H]2C(=O)N(c3cccc(Cl)c3)C(=O)[C@@H]2[C@@H]2CCCN21`, the IC50 was > 50 µM (inactive).

For `CCN1C(=O)COc2ccc(NC(=O)c3ccc(OCc4nonc4C)cc3)cc21`, the IC50 is > 50 µM (inactive).

`Cn1c(CN2CCCCCC2)nc2cc(NC(=O)c3ccccc3)ccc21`: the IC50 is > 50 µM (inactive).

Take `CC(=O)c1ccc(NC(=O)C2CCN(c3cncnc3N3CCCC3)CC2)cc1`: the IC50 is > 50 µM (inactive).

Turning to `CC(C)CC1NC(=O)C2CCCN2C1=O` (centres undefined), the IC50 was > 50 µM (inactive).

For `COc1ccc(CCNC(=O)CCCCn2c(=O)c3ccccc3n(Cc3cccc(Cl)c3)c2=O)cc1OC`, the IC50 was 29.9 µM.

`COc1ccc(C(=O)CSc2ccc3nnc(CCNC(=O)c4ccc(OC)cc4)n3n2)cc1`: the IC50 was > 50 µM (inactive).

In the case of `O=C(CSc1nc2cc(S(=O)(=O)Nc3ccccc3Cl)ccc2o1)Nc1ccc(N2CCOCC2)cc1`, the IC50 was > 50 µM (inactive).

On to `O=C(Nc1nnc2n1CCCS2)c1cc2ccccc2o1`, for which the IC50 was > 50 µM (inactive).

For `Cc1cc(Cl)c2c(c1)[C@]1(C(=O)N2)N2CCC[C@H]2[C@@H](C(=O)c2cc3ccccc3o2)[C@]12C(=O)Nc1ccccc12`, the IC50 is > 50 µM (inactive).

As for `COc1cc2c(cc1OC)-c1cc(NCc3cc(OC)c(OC)c(OC)c3)nc(=O)n1CC2`, the IC50 is > 50 µM (inactive).

Take `COc1ccc(NC2c3ccccc3C(=O)N2c2ccccn2)cc1` (centres undefined): the IC50 was > 50 µM (inactive).

Regarding `COc1ccc(Cl)cc1NC(=O)c1cc(-c2ccccn2)n[nH]1`, the IC50 was 2.58 µM.

On to `CCCCN(CC)c1ncnc2c1sc1nc(-c3ccco3)c3c(c12)CC(C)(C)OC3`, for which the IC50 is > 50 µM (inactive).

Turning to `O=C(CCCCn1c(=O)[nH]c2ccccc2c1=O)Nc1cccc(Cl)c1`, the IC50 was 21.6 µM.

With `c1cnc(-c2n[nH]c(C3CCN(C4CCNC4)CC3)n2)cn1` (centres undefined), the IC50 was > 50 µM (inactive).

`CCN(CC)C(=O)c1sc(NC(=O)/C=C/c2c(F)cccc2Cl)c(C#N)c1C`: the IC50 is > 50 µM (inactive).

In the case of `COc1ccc(NC(=O)CSc2nnc(Cc3cccc4ccccc34)n2C)cc1`, the IC50 is > 50 µM (inactive).

In the case of `Cc1ccc2c(c1)-c1c(c(C(=O)N3CCN(c4ccccc4)CC3)nn1C)CS2`, the IC50 was > 50 µM (inactive).

As to `Nc1ccccc1SCc1noc(-c2cccs2)n1`, the IC50 was > 50 µM (inactive).

On to `COc1ccc(C(=O)Nc2ccc3c(c2)Sc2ncccc2C(=O)N3C)cn1`, for which the IC50 was > 50 µM (inactive).

Take `CSc1ccc(CNCc2c(C(=O)O)n(Cc3ccccc3)c3cc(C)ccc23)cc1`: the IC50 was > 50 µM (inactive).

On to `Cc1cc(O)c(Oc2cc(C)cc(O)c2O)c(O)c1`, for which the IC50 is 16.8 µM.

As for `CC1(C)CC(n2[nH]c(=O)c3c2NC(=O)CSC3c2ccc(OCc3ccccc3)cc2)CCO1` (centres undefined), the IC50 was 22.4 µM.

Regarding `COc1ccc(CN2C[C@@H]3C[C@]3(c3ccccc3)C(=O)c3ncccc32)cc1`, the IC50 was > 50 µM (inactive).

Regarding `Cc1cccc(C(=O)Nc2cccc(SC(C(=O)Nc3ccc(O)c(C(=O)O)c3)c3ccccc3)c2)c1` (centres undefined), the IC50 is 24.1 µM.

With `COc1cccc(/C=C/C(=O)Nc2ccc(C)c(Cl)c2)c1`, the IC50 is 45.5 µM.

On to `COc1ccc(/C=C/C(=O)Nc2c3c(nc4c2CCC4)CCCC3)cc1`, for which the IC50 was 23.6 µM.

As for `CC(C)CCn1c(=O)c2ccccc2n2c(CCC(=O)NC3CCCCCC3)nnc12`, the IC50 was > 50 µM (inactive).

As for `CC(C)C1Cc2c(sc3nc(SCC(=O)Nc4cccc5ccccc45)nc(N)c23)CO1` (centres undefined), the IC50 was > 50 µM (inactive).

For the compound `O=C(Cc1cccs1)Nc1cc(F)c2nc(N3CCOCC3)ccc2c1`, the IC50 was > 50 µM (inactive).

For `O=C(CNC(=O)c1cc2ccccc2o1)Nc1ccc2c(c1)OCCO2`, the IC50 was 33.8 µM.

For `COc1ccc(CN2CCCC23CCCN(C(=O)CCc2cccnc2)C3)cc1F` (centres undefined), the IC50 was 49.5 µM.

For the compound `CSc1nccc(-c2ccc(F)cc2)c1C#N`, the IC50 is > 50 µM (inactive).

As to `Cn1ncc2c(=O)n(Cc3cccc(Cl)c3)cnc21`, the IC50 is > 50 µM (inactive).

`COc1cccc(CNC(=O)C2=Cc3cccc(OC)c3OC2)c1`: the IC50 is > 50 µM (inactive).

Take `COc1cccc(NC(=O)C2Cn3ccnc3C3(CCN(C(C)=O)CC3)O2)c1` (centres undefined): the IC50 is > 50 µM (inactive).

For `Cc1csc2ncc(C(=O)N3CCN(c4ccccc4F)CC3)c(=O)n12`, the IC50 was > 50 µM (inactive).

`N#Cc1cccc(S(=O)(=O)N2CCc3nc4ccccc4n3CC2)c1`: the IC50 was 28.3 µM.

With `COc1ccccc1-c1nc2c3c(C)c(C)n(-c4ccc(Br)cn4)c3ncn2n1`, the IC50 is > 50 µM (inactive).

Consider `O=C(NCc1ccc(CN2CCCC2)cc1)c1cc2ccccc2[nH]c1=O`, for which the IC50 is > 50 µM (inactive).

Regarding `CC1OC2CC(O)C1(O)C1=C2C(O)=C(C(N)=O)C(=N)C1=O` (centres undefined), the IC50 was > 50 µM (inactive).

In the case of `O=C(OCc1ccc(F)cc1)c1ccc2ccccc2n1`, the IC50 was > 50 µM (inactive).

Regarding `Cc1ccc2cccc(OCc3nnc(SCC(=O)c4ccc(Cl)cc4)n3C)c2n1`, the IC50 was 25.8 µM.

With `O=c1[nH]cccc1NS(=O)(=O)c1ccc(F)cc1`, the IC50 is > 50 µM (inactive).

As to `COC(=O)c1ccc(C(=O)Nc2cc3ccccc3cc2NC(=O)c2ccc(C(=O)OC)cc2)cc1`, the IC50 is 19.1 µM.

`CC(C)(C)C(=O)C1C2C(=O)N(Cc3ccccc3)C(=O)C2C2c3ccccc3C=CN12` (centres undefined): the IC50 was > 50 µM (inactive).

As for `CC(=O)Nc1cccc(NC(=O)COc2cccc3ccc(N4CCCC4)nc23)c1`, the IC50 was > 50 µM (inactive).

For the compound `CC(=O)[C@H]1c2c(c(O)c3c(O)cccc3c2-c2c3c(c(O)c4c(O)cccc24)C(=O)C[C@](C)(O)[C@H]3C(C)=O)C(=O)C[C@]1(C)O`, the IC50 is > 50 µM (inactive).

`O=c1c2ccccc2oc2nc(-c3cccs3)n(-c3ccccc3)c(=O)c12`: the IC50 was 3.6 µM.

Turning to `CC(C)Cc1cc(-c2nnc3sc(-c4ccco4)nn23)n[nH]1`, the IC50 was > 50 µM (inactive).

In the case of `COC(=O)c1cc2c(ccn2C)n1CC(=O)NC1CC1`, the IC50 was > 50 µM (inactive).

Consider `Cc1nc(Nc2c3ccccc3nc3ccccc23)sc1C`, for which the IC50 is > 50 µM (inactive).

For the compound `Cc1cc(-n2c(C)cc(-c3csc(N)n3)c2C)no1`, the IC50 was > 50 µM (inactive).

On to `CCc1nc(SCC(=O)Nc2ccccc2Cl)c2oc3ccccc3c2n1`, for which the IC50 is 1.92 µM.

In the case of `O=C(Cn1nnc(-c2ccc(F)cc2)n1)NCCc1ccccc1`, the IC50 was > 50 µM (inactive).

As to `CCOC(=O)c1cc2c(ccn2C)n1Cc1cccc2ccccc12`, the IC50 was > 50 µM (inactive).

As for `C[C@@H]1O[C@@H](O[C@H]2[C@H](O[C@H]3[C@H](O[C@H]4CC[C@@]5(C)[C@@H](CC[C@]6(C)[C@@H]5CC=C5[C@@H]7CC(C)(C)CC(=O)[C@]7(C)CC[C@]56C)[C@@]4(C)CO)O[C@H](C(=O)O)[C@@H](O)[C@@H]3O)OC[C@@H](O)[C@@H]2O)[C@H](O)[C@H](O)[C@H]1O`, the IC50 is > 50 µM (inactive).

As to `CCC(=O)Nc1cccnc1-c1ccc(C(=O)Nc2cccc(OC)c2)cc1`, the IC50 is > 50 µM (inactive).

With `COc1cc([C@@H]2c3cc4c(cc3C[C@@H]3COC(=O)[C@H]32)OCO4)cc(OC)c1OC`, the IC50 was 20.5 µM.

As to `COc1ccc(-c2ocnc2C(=O)Nc2cccc(Cl)c2C)cc1OC`, the IC50 was > 50 µM (inactive).
